# Measurements as given in the supplement of paper PMC10307832.
# Experiments:
# Assay in all cases: relative viability (nuclei count vs DMSO), 5 days (fraction); higher = more cells survive
# Vemurafenib + Foretinib = compound: CCCS(=O)(=O)Nc1ccc(F)c(C(=O)c2c[nH]c3ncc(-c4ccc(Cl)cc4)cc23)c1F [Vemurafenib] + COc1cc2c(Oc3ccc(NC(=O)C4(C(=O)Nc5ccc(F)cc5)CC4)cc3F)ccnc2cc1OCCCN1CCOCC1 [Foretinib] (partner 0.25 µM)
# Outline: (§1)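 Lung cancer cell lines were seeded in 1536-well plates and dosed by pin tool the next day, with either a single drug or a fixed anchor-drug dose combined with five library-drug doses (not always all listed) spaced in √10 steps. Five days later, one step fixed the cells and stained their nuclei (final 0.05% Triton X-100, 1% formaldehyde, 1 ug/ml Hoechst), and nuclei were counted on 4× images. Relative viability is the nuclei count in treated wells divided by the count in vehicle wells, and each value is the median of duplicate plates.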
# Vemurafenib + Tozasertib = compound: CCCS(=O)(=O)Nc1ccc(F)c(C(=O)c2c[nH]c3ncc(-c4ccc(Cl)cc4)cc23)c1F [Vemurafenib] + Cc1cc(Nc2cc(N3CCN(C)CC3)nc(Sc3ccc(NC(=O)C4CC4)cc3)n2)n[nH]1 [Tozasertib] (partner 0.1 µM)
# Outline: as §1
# OSI-027 + Bortezomib = compound: COc1cccc2cc(-c3nc([C@H]4CC[C@H](C(=O)O)CC4)n4ncnc(N)c34)[nH]c12 [OSI-027] + CC(C)C[C@H](NC(=O)[C@H](Cc1ccccc1)NC(=O)c1cnccn1)B(O)O [Bortezomib] (partner 0.002 µM)
# Outline: as §1
# Alpelisib + Trametinib = compound: Cc1nc(NC(=O)N2CCC[C@H]2C(N)=O)sc1-c1ccnc(C(C)(C)C(F)(F)F)c1 [Alpelisib] + CC(=O)Nc1cccc(-n2c(=O)n(C3CC3)c(=O)c3c(Nc4ccc(I)cc4F)n(C)c(=O)c(C)c32)c1 [Trametinib] (partner 0.02 µM)
# Outline: as §1
Cell Line,relative viability (Vemurafenib + Foretinib; first compound 0.03162 µM),relative viability (Vemurafenib + Foretinib; first compound 0.3162 µM),relative viability (Vemurafenib + Foretinib; first compound 1 µM),relative viability (Vemurafenib + Tozasertib; first compound 0.03162 µM),relative viability (Vemurafenib + Tozasertib; first compound 0.3162 µM),relative viability (Vemurafenib + Tozasertib; first compound 1 µM),relative viability (OSI-027 + Bortezomib; first compound 0.01 µM),relative viability (OSI-027 + Bortezomib; first compound 0.03162 µM),relative viability (OSI-027 + Bortezomib; first compound 0.1 µM),relative viability (OSI-027 + Bortezomib; first compound 0.3162 µM),relative viability (OSI-027 + Bortezomib; first compound 1 µM),relative viability (Alpelisib + Trametinib; first compound 0.04 µM),relative viability (Alpelisib + Trametinib; first compound 0.1265 µM),relative viability (Alpelisib + Trametinib; first compound 0.4 µM),relative viability (Alpelisib + Trametinib; first compound 1.265 µM),relative viability (Alpelisib + Trametinib; first compound 4 µM),relative viability (Vemurafenib + Foretinib; first compound 0.1 µM),relative viability (Vemurafenib + Tozasertib; first compound 0.1 µM)
PC-3 [JPC-3],0.911,1.05,1.13,0.853,0.904,0.881,0.816,0.731,0.807,0.877,0.815,0.704,0.602,0.685,0.655,0.578,–,–
PC-14,0.882,0.876,0.942,0.557,0.376,0.551,1.03,0.93,0.955,0.989,0.652,0.735,0.686,0.62,0.292,0.709,–,–
RERF-LC-KJ,0.858,0.875,0.876,0.486,0.415,0.397,1.18,0.948,1.03,0.808,0.511,0.86,0.933,0.895,0.645,0.693,0.816,0.487
SK-LU-1,0.706,0.647,0.705,0.255,0.294,0.298,1.01,1.26,0.75,0.655,0.404,0.474,0.566,0.53,0.392,0.345,0.709,0.283
SW 1573,0.906,0.955,0.891,0.162,0.193,0.26,1.18,0.897,0.831,0.776,0.732,0.562,0.586,0.553,0.363,0.388,0.893,0.192
